Assay results as given in US5976523A, “Method for healing compromised tissues using pyrimidine derivatives” (Mitsui Pharmaceuticals, Inc., priority 1995, dated 1999).
Structures can show the parent of a compound that is named as a salt.

Test system: primary cultured gastric mucosal cells
Experiment: Wound repair model with primary cultured gastric mucosal cells
Assay type: cell-based, rabbit
Procedure: Primary cultured gastric mucosal cells were prepared by mechanically peeling and mincing the gastric mucosa of a rabbit having a body weight of 2 kg and then digesting the minced gastric mucosa with 0.07% collagenase. The primary cultured gastric mucosal cells were cultured at a cell concentration of 3.3×10^5 cells/ml in F-12 culture medium containing 10% fetal calf serum added therein. For this cultivation, a culture dish (60 mm in diameter) coated with collagen type I was used. […] Using an anti-BrdU antibody, the cells in the S phase were stained to identify proliferated cells.
Their effects on the process of restoration were measured under the above-described parameters. […] In each of the control group and the medicament-added groups, the area of the wounded region was measured at the 0th hour, 12th hour, 24th hour, 36th hour and 48th hour. The measurement results will be given in this order.
The control group and the groups added with the medicament at the respective concentrations were each subjected to the experiment with n=5. The results will each be presented as a (mean±S. D.) mm2. A test of significance was conducted relative to the control group. * stands for p<0.05, ** for p<0.01, *** for p<0.001. A further test of significance was conducted relative to a group added with 10 ng/ml of EGF. + stands for p<0.05, and ++ for <0.01.

Structure (SMILES): CN1Cc2nc(N3CCNCC3)ncc2C1=O [Compound B, 2-piperazino-6-methyl-5-oxo-5,6-dihydro(7H)pyrro[3,4-d]pyrimidine maleate]
- area of the wounded region (mean±S.D.) (EGF + 0.01 mM compound, 0th hour): 2.06±0.04 mm2
- area of the wounded region (mean±S.D.) (EGF + 0.01 mM compound, 12th hour): 0.92±0.05 mm2
- area of the wounded region (mean±S.D.) (EGF + 0.01 mM compound, 24th hour): 0.38±0.05 mm2
- area of the wounded region (mean±S.D.) (EGF + 0.01 mM compound, 36th hour): 0.07±0.04 mm2
- area of the wounded region (mean±S.D.) (EGF + 0.01 mM compound, 48th hour): 0 mm2
- area of the wounded region (mean±S.D.) (EGF + 0.1 mM compound, 0th hour): 2.06±0.04 mm2
- area of the wounded region (mean±S.D.) (EGF + 0.1 mM compound, 12th hour): 0.83±0.05 mm2
- area of the wounded region (mean±S.D.) (EGF + 0.1 mM compound, 24th hour): 0.29±0.07 mm2
- area of the wounded region (mean±S.D.) (EGF + 0.1 mM compound, 36th hour): 0 mm2
- area of the wounded region (mean±S.D.) (EGF + 0.1 mM compound, 48th hour): 0 mm2
- effect on EGF-induced acceleration of cell restoration (compound 0.01-0.1 mM with EGF): further promoted the EGF-induced acceleration of cell restoration in a concentration-dependent fashion
- repairing effects (compound alone 0.01-0.1 mM, absence of EGF): did not show repairing effects in the absence of EGF
